{"source": "patent US20180214467A1", "about": "“GLP-1 SECRETAGOGUE” (EDUCATIONAL FOUNDATION JICHI MEDICAL UNIVERSITY, priority 2015, published 2018)", "key": {"C57BL/6J male mice [1]": {"test_system": "C57BL/6J male mice", "test": "Portal vein active GLP-1 and total GIP 30 minutes after oral administration of monosaccharides to fasting mice (Example 2)", "format": "in vivo", "details": "30 minutes after administration, vs saline", "protocol": "To the C57BL/6J male mice (9-11 weeks old) having fasted for 16 hours from 18:00 on the day before the experiment, D-psicose at 0.3 g/kg or 1 g/kg, D-tagatose or D-glucose each at 1 g/kg, or saline was orally administered into each stomach at 10:00 AM. The dose of the oral administration was 10 ml/kg. The blood was collected from the portal vein under isoflurane anesthesia 30 minutes after the administration. Note that an anticoagulant (heparin (final concentration: 50 IU/ml)) and peptide degradation suppressors (aprotinin (final concentration: 500 KIU/ml) and vildagliptin (final concentration: 10 μM)) had been added into the sampling syringes in advance. The collected blood was cooled and centrifuged. The blood plasma was stored at −80° C. until the analysis. The quantitative analyses of active GLP-1 and total GIP were conducted using the above-described kits. In addition, as the statistical analyses, a one-way analysis of variance (unpaired) was performed, followed by Dunnett's test using saline as the control. […] Note that, in FIG. 3, * indicates p<0.05, and ** indicates p<0.01. Moreover, numerical values in bar graphs in the figure each indicate the number of experiments."}, "C57BL/6J male mice [2]": {"test_system": "C57BL/6J male mice", "test": "Amount of diet ingested after oral D-psicose with or without GLP-1 receptor inhibitor Ex-9 (Example 3)", "format": "in vivo", "details": "vs control group", "protocol": "The C57BL/6J male mice (9-11 weeks old) were preliminarily grown in separate cages for one week or more, and habituated to the growth and experimental environment through training by the experimenter. After the fasting for 16 hours from 18:00 on the day before the experiment, saline or a GLP-1 receptor inhibitor (Exendin-9, Ex-9, 200 nmol/kg) was intraperitoneally administered from 9:45. Immediately thereafter, saline or D-psicose at 1 g/kg was orally administered into each stomach. The doses of the intraperitoneal administration and the oral administration were respectively 5 ml/kg and 10 ml/kg. From 10:00, the mice were fed with Diet CE-2 (common mouse diet with well-balanced nutrients, manufactured by CLEA Japan, Inc.) ad lib. After 0.5 hours, 1 hour, 2 hours, 3 hours, and 6 hours, the amounts of the diet ingested were measured over time. Each amount of the diet ingested was calculated as the amount of energy ingested (kcal), given that 1 g of D-psicose orally administered into the stomach is 0 kcal, and 1 g of Diet CE-2 is 3.45 kcal. As the statistical analyses, a one-way analysis of variance (unpaired) was performed on the results at the respective time points, and multiple comparisons were performed by Tukey's test among all the groups. […] Note that, in FIG. 4, * indicates p<0.05, and ** indicates p<0.01."}, "C57BL/6J male mice [3]": {"test_system": "C57BL/6J male mice", "test": "Amount of diet ingested after oral D-psicose or D-tagatose (Example 4)", "format": "in vivo", "details": "1 g/kg oral, vs control group (saline)", "protocol": "The C57BL/6J male mice (7-11 weeks old) were preliminarily grown in separate cages for one week or more, and habituated to the growth and experimental environment through training by the experimenter. After the fasting for 16 hours from 18:00 on the day before the experiment, saline, D-psicose at 1 g/kg, or D-tagatose at 1 g/kg was orally administered into each stomach from 9:50. The doses were each 10 ml/kg. From 10:00, the mice were fed with Diet CE-2 ad lib. After 1 hour, 2 hours, and 6 hours, the amounts of the diet ingested were measured over time. Each amount of the diet ingested was calculated as the amount of energy ingested (kcal), given that 1 g of D-tagatose orally administered into the stomach is 2 kcal, and 1 g of Diet CE-2 is 3.45 kcal. As the statistical analyses, a one-way analysis of variance (unpaired) was performed on the results at the respective time points, and multiple comparisons were performed by Tukey's test among all the groups. […] Note that, in FIG. 5, * indicates p<0.05, and ** indicates p<0.01."}, "C57BL/6J male mice [4]": {"test_system": "C57BL/6J male mice", "test": "Portal vein active GLP-1, total GLP-1 and total GIP over time after oral administration to fasting mice (Example 1)", "format": "in vivo", "details": "1 g/kg oral", "protocol": "As the experimental animal, C57BL/6J male mice (9-11 weeks old) were used. To the mice having fasted for 16 hours from 18:00 on the day before the experiment, D-psicose at 1 g/kg was orally administered into each stomach at 10:00 AM. The dose of the oral administration was 10 ml/kg. Before the D-psicose administration and 30 minutes and 60 minutes after the administration, the blood was collected from the portal vein under isoflurane anesthesia. Note that an anticoagulant (heparin (final concentration: 50 IU/ml)) and peptide degradation suppressors (aprotinin (final concentration: 500 KIU/ml) and vildagliptin (final concentration: 10 μM)) had been added into the sampling syringes in advance. The collected blood was cooled, centrifuged, and stored at −80° C. until the resulting blood plasma was analyzed. The quantitative analyses of active GLP-1, total GLP-1, and total GIP were conducted using ELISA kits (manufactured by Millipore Corporation. EGLP-35K, EZGLPIT-36K, and EZRMGIP-55K, respectively). In addition, as the statistical analyses, a one-way analysis of variance (paired) was performed, followed by Dunnett's test using a value before the D-psicose administration (0 min) as the control. […] Note that, in FIG. 2, * indicates p<0.05, and ** indicates p<0.01. Moreover, numerical values in bar graphs in FIG. 2 each indicate the number of experiments."}, "Sprague Dawley rat": {"test_system": "Sprague Dawley rat", "test": "Blood glucose and total GLP-1 over time after oral administration to fasted rats (Example 5)", "format": "in vivo", "details": "2 g/kg body weight oral, fasted SD rats, 0 to 240 minutes", "protocol": "Before a sample was administered (0 minutes), the blood was collected from the tail vein of each Sprague Dawley rat (8 to 9 weeks old male) having fasted overnight. Using a feeding tube, each solution of deionized water (control group), D-psicose, an indigestible dextrin (DE10), and a dextrin (the product manufactured by Matsutani Chemical Industry Co., Ltd.: “Pinedex #2” (DE10)) was orally administered at 2 g/kg body weight (10 mL/kg body weight). Then, the blood was collected from the tail vein after 15 minutes, 30 minutes, 60 minutes, 90 minutes, 120 minutes, 150 minutes, 180 minutes, 210 minutes, and 240 minutes.\nThe blood was collected into a tube to which a DPP-IV inhibitor (manufactured by Millipore Corporation), aprotinin (manufactured by Wako Pure Chemical Industries, Ltd.), and heparin (manufactured by Nacalai Tesque, Inc.) had been added in advance. The blood plasma was collected by centrifugation, and cryopreserved at −80° C. The total GLP-1 concentration in the resulting blood plasma was measured with a commercially available ELISA kit (Multi Species GLP-1 Total ELISA manufactured by Millipore Corporation). The glucose concentration in the blood plasma was measured with Glucose CII-Test Wako (manufactured by Wako Pure Chemical Industries, Ltd.)."}, "[5]": {"test_system": "murine large intestine-derived, Glucagon-like peptide-1 (GLP-1) producing cell line GLUTag", "test": "GLP-1 secretion test in GLUTag cells (preliminary test)", "format": "cell-based", "details": "10 mM, 20 mM and 40 mM solutions, 60 minutes", "protocol": "A murine large intestine-derived, Glucagon-like peptide-1 (GLP-1) producing cell line GLUTag was cultured in 10%-FBS containing Dulbecco's modified Eagle's medium at 37° C. in the presence of 5% CO2. The GLUTag cells were cultured in a 48-well plate for 2 or 3 days until subconfluence. Before each sample (D-psicose or an indigestible dextrin) was added, the wells were washed with a Hepes buffer (140 mM NaCl, 4.5 mM KCl, 20 mM Hepes, 1.2 mM CaCl2, 1.2 mM MgCl2, 10 mM D-glucose, 0.1% BSA, pH: 7.4). Then, 80 μl of a solution of the sample dissolved in the same buffer was added to the wells, and incubated at 37° C. for 60 minutes. After the supernatant was collected, the cells were precipitated by centrifugation (800×g, 5 minutes, 4° C.), and 70 μl of the supernatant was cryopreserved. The total GLP-1 in this supernatant was measured with commercially available “Enzyme immuno assay kit” (manufactured by Yanaihara Institute Inc.)."}, "healthy subjects": {"test_system": "healthy subjects", "test": "Total GLP-1 blood concentration AUC after single ingestion by healthy subjects (Example 6)", "format": "in vivo", "details": "humans, fasting", "protocol": "After setting a termination period for one week or more in advance, 200 ml of water (control beverage) or D-psicose at 5 g/200 ml (D-psicose: 0.07 to 0.11 g/kg body weight), 10 g/200 ml (D-psicose: 0.14 to 0.22 g/kg body weight), or 15 g/200 ml (test beverage) (D-psicose: 0.21 to 0.33 g/kg body weight) each at a single dose was randomly ingested by six healthy subjects (three men and three women. The body weights: 53.3±7.4 kg). In the night before the day when the control beverage or the test beverage was ingested (test day), a designated dinner was ingested. After 21:00 in the night until 9:00 AM on the test day, the ingestion of foods and beverages excluding water and tea beverages was prohibited. As the designated diet, any menu (curry, chicken and egg bowl, beef bowl, Chinese rice bowl) was selectable which hardly contain substances such as dietary fibers, lactic acid bacteria, and fermentative saccharides utilizable by intestinal bacteria for the fermentations. […] The total GLP-1 amount in the centrifuged blood plasma was measured using the product manufactured by Merck KGaA: “Multi Species GLP-1 Total ELISA.” Note that the subjects were made to keep regular lifestyles and avoid excessive exercising, eating, and drinking during the test period of approximately one month, and spend a time quietly in house during the test."}, "[6]": {"details": "30 to 60 minutes after administration vs 0 min"}}}
{"compound": "O=C[C@H](O)[C@@H](O)[C@H](O)[C@H](O)CO", "note": "[D-glucose, reference compound]", "values": [{"measurement": "active GLP-1 concentration in the portal veins", "setting": "C57BL/6J male mice [1]; 1 g/kg oral", "result": "did not change at all"}, {"measurement": "total GIP in the portal veins", "setting": "C57BL/6J male mice [1]; 1 g/kg oral", "result": "significantly increased the GIP concentration"}]}
{"compound": "O=C(CO)[C@H](O)[C@H](O)[C@H](O)CO", "note": "[D-psicose]", "values": [{"measurement": "amount of the diet ingested", "setting": "C57BL/6J male mice [2]; Ex-9 200 nmol/kg i.p. + D-psicose 1 g/kg oral, 30 minutes after administration", "result": "significantly smaller"}, {"measurement": "amount of the diet ingested", "setting": "C57BL/6J male mice [2]; Ex-9 200 nmol/kg i.p. + D-psicose 1 g/kg oral, after 1 hour (to 6 hours) from administration", "result": "not significantly different"}, {"measurement": "amount of the diet ingested", "setting": "C57BL/6J male mice [2]; saline i.p. + D-psicose 1 g/kg oral, 30 minutes to 6 hours after administration", "result": "significantly decreased"}, {"measurement": "amount of the diet ingested", "setting": "C57BL/6J male mice [3]; 1 hour to 6 hours after administration", "result": "significantly smaller"}, {"measurement": "active GLP-1 concentration in the portal veins", "setting": "C57BL/6J male mice [4]; [6]", "result": "increased"}, {"measurement": "total GLP-1 concentration in the portal veins", "setting": "C57BL/6J male mice [4]; [6]", "result": "increased"}, {"measurement": "GIP secretion (total GIP concentration in the portal veins)", "setting": "C57BL/6J male mice [4]; for 60 minutes after administration", "result": "did not influence the GIP secretion"}, {"measurement": "blood sugar level", "setting": "Sprague Dawley rat", "result": "small variation"}, {"measurement": "total GLP-1 concentration in the blood", "setting": "Sprague Dawley rat", "result": "greatly increased"}, {"measurement": "active GLP-1 concentration in the portal veins", "setting": "C57BL/6J male mice [1]; 0.3 g/kg oral", "result": "tended to increase"}, {"measurement": "total GIP in the portal veins", "setting": "C57BL/6J male mice [1]; 0.3 g/kg oral", "result": "only the D-glucose administration group significantly increased the GIP concentration"}, {"measurement": "active GLP-1 concentration in the portal veins", "setting": "C57BL/6J male mice [1]; 1 g/kg oral", "result": "significantly increased"}, {"measurement": "total GIP in the portal veins", "setting": "C57BL/6J male mice [1]; 1 g/kg oral", "result": "only the D-glucose administration group significantly increased the GIP concentration"}, {"measurement": "GLP-1 secretion (total GLP-1 in supernatant)", "setting": "[5]", "result": "merely tended to exhibit slight secretion promotion"}, {"measurement": "area under total GLP-1 blood concentration-time curve (AUC)", "setting": "healthy subjects; single dose 5 g, 10 g or 15 g/200 ml, 15 to 180 minutes", "result": "increased in a manner dependent on the amount of D-psicose ingested"}, {"measurement": "single dose at which the effect of promoting the amount of total GLP-1 secreted into the blood was obtained", "setting": "healthy subjects; single oral ingestion", "result": "at least 0.07 g/kg body weight"}]}
{"compound": "O=C(CO)[C@@H](O)[C@@H](O)[C@H](O)CO", "note": "[D-tagatose, reference compound]", "values": [{"measurement": "amount of the diet ingested", "setting": "C57BL/6J male mice [3]; 1 hour after administration", "result": "significantly smaller"}, {"measurement": "amount of the diet ingested", "setting": "C57BL/6J male mice [3]; 2 hours and 6 hours after administration", "result": "almost the same"}, {"measurement": "active GLP-1 concentration in the portal veins", "setting": "C57BL/6J male mice [1]; 1 g/kg oral", "result": "tended to increase"}, {"measurement": "total GIP in the portal veins", "setting": "C57BL/6J male mice [1]; 1 g/kg oral", "result": "only the D-glucose administration group significantly increased the GIP concentration"}]}
{"compound": "Exendin-9 [Ex9, reference compound]", "values": [{"measurement": "amount of the diet ingested", "setting": "C57BL/6J male mice [2]; Ex-9 200 nmol/kg i.p. + saline oral, all time zones", "result": "at the same levels"}]}
